Measurements as given in US10519106B2, “Urea derivative and use therefor” (Toray Industries, Inc., priority 2015, dated 2019).
Counter-ions that a name gives are not always drawn.

Molecular target: T1, intracellular domain of DDR1 (Homo sapiens, UniProt Q08345)
T1 construct: the intracellular domain of DDR1 (in a final concentration of 5 ng/μL) (Carna Biosciences, Inc.); purchased Carna Biosciences, Inc
Experiment: Evaluation of DDR1 inhibition activity with HTRF KinEASE-TK kit
Format: biochemical
Details: intracellular domain of DDR1 5 ng/μL, ATP 25 mol/L (so in the source), TK Substrate-biotin 1000 nmol/L, room temperature, one hour
Procedure: The DDR1 inhibition activity of the compounds of Examples 1 to 51 was evaluated with HTRF® KinEASE-TK kit (Cisbio Bioassays).
Each test substance was dissolved in dimethyl sulfoxide (hereinafter referred to as DMSO) and then used for the evaluation as described below. Moreover, each of test substances and reagents was diluted in the kinase buffer (Cisbio Bioassays) prepared by adding thereto MgCl2, MnCl2, DTT, and the Supplemental Enzyme buffer (Cisbio Bioassays) to concentrations of 5 mmol/L, 0.5 mmol/L, 0.25 mmol/L, and 50 nmol/L, respectively, and then used. Each test substance (in DMSO in a final concentration of 1%), the intracellular domain of DDR1 (in a final concentration of 5 ng/μL) (Carna Biosciences, Inc.), the phosphate donor ATP (in final concentration of 25 mol/L) (Sigma), and the substrate TK Substrate-biotin (in a final concentration of 1000 nmol/L) (Cisbio Bioassays) were added to a 384-well black plate (Corning) and allowed to react at room temperature for one hour. After completion of the reaction, the TK Antibody-Cryptate (Cisbio Bioassays) and the Streptavidin-XL665 (Cisbio Bioassays) were added thereto and allowed to react at room temperature for one hour. In addition, the plate was provided with a well to which a test substance was not added, and with a well to which the intracellular domain of DDR1 and a test substance were not added.
The fluorescence intensity in each well was measured using a multi-label counter (Envision, PerkinElmer; excitation wavelength: 320 nm, measurement wavelength: 665 nm and 620 nm) to calculate a Ratio (the fluorescence intensity at 665 nm/the fluorescence intensity at 620 nm). The inhibition rate (%) of a test substance at each concentration was calculated based on the formula below. Inhibition rate (%)=([the Ratio obtained from the well containing no test substance]−[the Ratio from a well containing a test substance])/([the Ratio obtained from the well containing no test substance]−[the Ratio obtained from the well containing no intracellular domain of DDR1 and no test substance])×100
The calculated inhibition rates were fitted to a sigmoidal dose-response curve by regression analysis using the Prism 5.04 (GraphPad Software, Inc.) to calculate the ICso0 value of the test substance.

T1 sequence (Q08345 444-876 isoform Q08345-2 limits assumed): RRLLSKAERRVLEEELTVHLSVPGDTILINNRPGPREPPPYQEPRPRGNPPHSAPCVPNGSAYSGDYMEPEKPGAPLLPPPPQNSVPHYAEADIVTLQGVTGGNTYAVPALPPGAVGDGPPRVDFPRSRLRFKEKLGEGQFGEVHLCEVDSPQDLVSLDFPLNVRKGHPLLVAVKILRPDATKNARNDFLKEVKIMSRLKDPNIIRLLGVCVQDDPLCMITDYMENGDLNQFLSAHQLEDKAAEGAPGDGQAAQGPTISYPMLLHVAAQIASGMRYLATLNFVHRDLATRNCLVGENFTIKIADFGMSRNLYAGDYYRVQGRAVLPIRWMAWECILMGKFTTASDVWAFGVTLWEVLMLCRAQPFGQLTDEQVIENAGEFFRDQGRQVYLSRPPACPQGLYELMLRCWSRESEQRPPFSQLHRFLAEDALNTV

Q: `COc1ccc(OC(F)(F)F)cc1NC(=O)NCc1ccccc1OCc1ccc(C(=O)N(C)C)cc1` [Compound of Example 14, 4-((2-((3-(2-methoxy-5-(trifluoromethoxy)phenyl)ureido)methyl)phenoxy)methyl)-N,N-dimethylbenzamide] was tested. Which IC50 did it give?
A: The IC50 was 156 nM.

Q: For `COc1ccc(OC(F)(F)F)cc1NC(=O)NCc1ccccc1OCc1ccnc(C(N)=O)c1` [Compound of Example 5, 4-((2-((3-(2-methoxy-5-(trifluoromethoxy)phenyl)ureido)methyl)phenoxy)methyl)picolinamide], which IC50 is on record?
A: The IC50 was 47 nM.

Q: `COc1c(CO)cc(C(F)(F)F)cc1NC(=O)NCc1ccccc1OCc1ccc(C(=O)O)cc1` [Compound of Example 11, 4-((2-((3-(3-(hydroxymethyl)-2-methoxy-5-(trifluoromethyl)phenyl)ureido)methyl)phenoxy)methyl)benzoic acid] was tested. Which IC50 did it give?
A: Its IC50 is 150 nM.

Q: With `NC(=O)c1ccc(Oc2ccccc2CNC(=O)Nc2cccc(Cl)c2)cc1` [Compound of Example 49, 4-(2-((3-(3-chlorophenyl)ureido)methyl)phenoxy)benzamide] as the molecule, how does the IC50 read?
A: Its IC50 is 19.3 nM.

Q: Which IC50 does the source give for `CNC(=O)c1ccc(Oc2ccccc2CNC(=O)Nc2cc(C(F)(F)F)ccc2OC2COC2)cc1` [Compound of Example 43, 4-(2-((3-(2-(oxetan-3-yloxy)-5-(trifluoromethyl)phenyl)ureido)methyl)phenoxy)-N-methyl-benzamide] here?
A: Its IC50 is 78.5 nM.

Q: Which IC50 does the source give for `COC(=O)c1ccc(COc2ccccc2CNC(=O)Nc2cc(OC(F)(F)F)ccc2OC)cc1` [Compound of Example 7, methyl 4-((2-((3-(2-methoxy-5-(trifluoromethoxy)phenyl)ureido)methyl)phenoxy)methyl)benzoate] here?
A: The IC50 was 585 nM.

Q: `NC(=O)c1ccc(Oc2ccccc2CNC(=O)Nc2cccc(C(F)(F)F)c2)nc1` [Compound of Example 47, 6-(2-((3-(3-(trifluoromethyl)phenyl)ureido)methyl)phenoxy)nicotinamide] was tested. Which IC50 did it give?
A: The IC50 was 23.4 nM.

Q: `COc1c(CO)cc(C(F)(F)F)cc1NC(=O)NCc1ccccc1Oc1ccc(C(=O)O)cc1` [Compound of Example 28] was tested. Which IC50 did it give?
A: Its IC50 is 14.5 nM.

Q: For `CN1CCN(Cc2cc(NC(=O)NCc3ccccc3Oc3ccc(C(N)=O)cc3)cc(C(F)(F)F)c2)CC1` [Compound of Example 37, 4-(2-((3-(3-((4-methylpiperazin-1-yl)methyl)-5-(trifluoromethyl)phenyl)ureido)methyl)phenoxy)benzamide], which IC50 is on record?
A: Its IC50 is 11.7 nM.

Q: For `COc1ccc(S(F)(F)(F)(F)F)cc1NC(=O)NCc1ccccc1Oc1ccncc1` [Compound of Example 23, 1-(2-methoxy-5-(pentafluorosulfanyl)phenyl)-3-(2-(pyridin-4-yloxy)benzyl)urea hydrochloride], which IC50 is on record?
A: Its IC50 is 78.7 nM.

Q: For `CNC(=O)c1ccc(COc2ccccc2CNC(=O)Nc2cc(OC(F)(F)F)ccc2OC)cc1` [Compound of Example 13, 4-((2-((3-(2-methoxy-5-(trifluoromethoxy)phenyl)ureido)methyl)phenoxy)methyl)-N-methylbenzamide], which IC50 is on record?
A: Its IC50 is 96.4 nM.

Q: Which IC50 does the source give for `COc1ccc(OC(F)(F)F)cc1NC(=O)NCc1ccccc1Oc1ccc(C(N)=O)cc1` [Compound of Example 27] here?
A: Its IC50 is 21 nM.
